In general, IC50 refers to the point on the concentration scale where inhibition reaches its midpoint.

The target in experiment [1] is T1, rat brain N-type calcium channel subunits (α1B+α2δ+β1b cDNA subunits) (Rattus norvegicus, UniProt Q02294).
T1 construct: expressed in transfected cells
The experiment is described as follows: N-type calcium channel block, whole cell patch clamp in HEK 293 cells. Conditions: holding potential −80 mV to +10 mV. The experiment is classed as cell-based. On the procedure:
N-type calcium channel blocking activity was assayed in human embryonic kidney cells, HEK 293, stably transfected with the rat brain N-type calcium channel subunits (α1B+α2δ+β1b cDNA subunits). Alternatively, N-type calcium channels (α1B+α2δ+β1b cDNA subunits), L-type channels (α1C+α2δ+β1b cDNA subunits) and P/Q-type channels (α1A+α2δ+β1b cDNA subunits) were transiently expressed in HEK 293 cells. Briefly, cells were cultured in Dulbecco's modified eagle medium (DMEM) supplemented with 10% fetal bovine serum, 200 U/ml penicillin and 0.2 mg/ml streptomycin at 37° C. with 5% CO2. At 85% confluency cells were split with 0.25% trypsin/1 mM EDTA and plated at 10% confluency on glass coverslips. At 12 hours the medium was replaced and the cells transiently transfected using a standard calcium phosphate protocol and the appropriate calcium channel cDNA's. Fresh DMEM was supplied and the cells transferred to 28° C./5% CO2. Cells were incubated for 1 to 2 days prior to whole cell recording.
Whole cell patch clamp experiments were performed using an Axopatch 200B amplifier (Axon Instruments, Burlingame, Calif.) linked to a personal computer equipped with pCLAMP software. The external and internal recording solutions contained, respectively, 5 mM BaCl2, 10 mM MgCl2, 10 mM HEPES, 40 mM TEAC1, 10 mM glucose, 87.5 mM CsCl (pH 7.2) and 108 mM CsMS, 4 mM MgCl2, 9 mM EGTA, 9 mM HEPES (pH 7.2). Currents were typically elicited from a holding potential of −80 mV to +10 mV using Clampex software (Axon Instruments). Typically, currents were first elicited with low frequency stimulation (0.067 Hz) and allowed to stabilize prior to application of the compounds. The compounds were then applied during the low frequency pulse trains for two to three minutes to assess tonic block, and subsequently the pulse frequency was increased to 0.2 Hz to assess frequency dependent block. Data were analyzed using Clampfit (Axon Instruments) and SigmaPlot 4.0 (Jandel Scientific).
(In general: The patch-clamp technique gives a direct electrical read-out from membranes.)

The target in experiment [2] is T2, human DiG T-type channels (Homo sapiens, UniProt O43497).
T2 construct: expressed in transfected cells
In words: T-type calcium channel block, whole-cell patch clamp in HEK cell lines. The experiment is classed as cell-based. On the procedure:
Standard patch-clamp techniques were employed to identify blockers of T-type currents. Briefly, previously described HEK cell lines stably expressing human DiG T-type channels were used for all the recordings (passage #: 4-20, 37° C., 5% CO2). To obtain T-type currents, plastic dishes containing semi-confluent cells were positioned on the stage of a ZEISS AXIOVERT S100 microscope after replacing the culture medium with external solution (see below). Whole-cell patches were obtained using pipettes (borosilicate glass with filament, O.D.: 1.5 mm, I.D.: 0.86 mm, 10 cm length), fabricated on a SUTTER P-97 puller with resistance values of ˜5 MΩ (see below for internal solution).
In the non-inactivating protocol, the holding potential is set at −110 mV and with a pre-pulse at −100 mV for 1 second prior to the test pulse at −40 mV for 50 ms. […]
Test compounds were dissolved in external solution, 0.1-0.01% DMSO. After ˜10 min rest, they were applied by gravity close to the cell using a WPI microfil tubing. The “non-inactivated” pre-pulse was used to examine the resting block of a compound. The “inactivated” protocol was employed to study voltage-dependent block. However, the initial data shown below were mainly obtained using the non-inactivated protocol only. IC50 values are shown for various compounds of the invention in Table 5.

The test system of another experiment is rat formalin model. In words: Formalin-induced pain model (paw flinches). The experiment is classed as in vivo. Conditions: 30 mg/kg IP, 10 min before formalin, ±SEM, saline control=100%. On the procedure: The effects of intrathecally delivered compounds of the invention on the rat formalin model were measured. The compounds were reconstituted to stock solutions of approximately 10 mg/ml in propylene glycol. Eight Holtzman male rats of 275-375 g size were randomly selected per test article.
The following study groups were used, with test article, vehicle control (propylene glycol) and saline delivered intraperitoneally (IP):
Prior to initiation of drug delivery baseline behavioral and testing data were taken.
On the morning of testing, a small metal band (0.5 g) was loosely placed around the right hind paw. The rat was placed in a cylindrical Plexiglas chamber for adaptation a minimum of 30 minutes. Test Article or Vehicle Control Article was administered 10 minutes prior to formalin injection (50 μl of 5% formalin) into the dorsal surface of the right hind paw of the rat. The animal was then placed into the chamber of the automated formalin apparatus where movement of the formalin injected paw was monitored and the number of paw flinches tallied by minute over the next 60 minutes (Malmberg, A. B., et al., Anesthesiology (1993) 79:270-281).
Results are presented as Maximum Possible Effect ±SEM, where saline control=100%.

[3] abbreviates: low frequency stimulation 0.067 Hz (tonic block), read-out: IC50 @ 0.067 Hz.
The mark [4] stands for this setting: pulse frequency 0.2 Hz (frequency dependent block), read-out: IC50 @ 0.2 Hz.
The mark [5] stands for this setting: inactivation protocol, @ −80 mV, read-out: IC50 @ −80 mV.
Setting [6] is: non-inactivating protocol, pre-pulse −100 mV, test pulse −40 mV, read-out: IC50 @ −100 mV.

Where two headings read alike, the source gives them in different places.

T2 sequence (O43497 whole entry): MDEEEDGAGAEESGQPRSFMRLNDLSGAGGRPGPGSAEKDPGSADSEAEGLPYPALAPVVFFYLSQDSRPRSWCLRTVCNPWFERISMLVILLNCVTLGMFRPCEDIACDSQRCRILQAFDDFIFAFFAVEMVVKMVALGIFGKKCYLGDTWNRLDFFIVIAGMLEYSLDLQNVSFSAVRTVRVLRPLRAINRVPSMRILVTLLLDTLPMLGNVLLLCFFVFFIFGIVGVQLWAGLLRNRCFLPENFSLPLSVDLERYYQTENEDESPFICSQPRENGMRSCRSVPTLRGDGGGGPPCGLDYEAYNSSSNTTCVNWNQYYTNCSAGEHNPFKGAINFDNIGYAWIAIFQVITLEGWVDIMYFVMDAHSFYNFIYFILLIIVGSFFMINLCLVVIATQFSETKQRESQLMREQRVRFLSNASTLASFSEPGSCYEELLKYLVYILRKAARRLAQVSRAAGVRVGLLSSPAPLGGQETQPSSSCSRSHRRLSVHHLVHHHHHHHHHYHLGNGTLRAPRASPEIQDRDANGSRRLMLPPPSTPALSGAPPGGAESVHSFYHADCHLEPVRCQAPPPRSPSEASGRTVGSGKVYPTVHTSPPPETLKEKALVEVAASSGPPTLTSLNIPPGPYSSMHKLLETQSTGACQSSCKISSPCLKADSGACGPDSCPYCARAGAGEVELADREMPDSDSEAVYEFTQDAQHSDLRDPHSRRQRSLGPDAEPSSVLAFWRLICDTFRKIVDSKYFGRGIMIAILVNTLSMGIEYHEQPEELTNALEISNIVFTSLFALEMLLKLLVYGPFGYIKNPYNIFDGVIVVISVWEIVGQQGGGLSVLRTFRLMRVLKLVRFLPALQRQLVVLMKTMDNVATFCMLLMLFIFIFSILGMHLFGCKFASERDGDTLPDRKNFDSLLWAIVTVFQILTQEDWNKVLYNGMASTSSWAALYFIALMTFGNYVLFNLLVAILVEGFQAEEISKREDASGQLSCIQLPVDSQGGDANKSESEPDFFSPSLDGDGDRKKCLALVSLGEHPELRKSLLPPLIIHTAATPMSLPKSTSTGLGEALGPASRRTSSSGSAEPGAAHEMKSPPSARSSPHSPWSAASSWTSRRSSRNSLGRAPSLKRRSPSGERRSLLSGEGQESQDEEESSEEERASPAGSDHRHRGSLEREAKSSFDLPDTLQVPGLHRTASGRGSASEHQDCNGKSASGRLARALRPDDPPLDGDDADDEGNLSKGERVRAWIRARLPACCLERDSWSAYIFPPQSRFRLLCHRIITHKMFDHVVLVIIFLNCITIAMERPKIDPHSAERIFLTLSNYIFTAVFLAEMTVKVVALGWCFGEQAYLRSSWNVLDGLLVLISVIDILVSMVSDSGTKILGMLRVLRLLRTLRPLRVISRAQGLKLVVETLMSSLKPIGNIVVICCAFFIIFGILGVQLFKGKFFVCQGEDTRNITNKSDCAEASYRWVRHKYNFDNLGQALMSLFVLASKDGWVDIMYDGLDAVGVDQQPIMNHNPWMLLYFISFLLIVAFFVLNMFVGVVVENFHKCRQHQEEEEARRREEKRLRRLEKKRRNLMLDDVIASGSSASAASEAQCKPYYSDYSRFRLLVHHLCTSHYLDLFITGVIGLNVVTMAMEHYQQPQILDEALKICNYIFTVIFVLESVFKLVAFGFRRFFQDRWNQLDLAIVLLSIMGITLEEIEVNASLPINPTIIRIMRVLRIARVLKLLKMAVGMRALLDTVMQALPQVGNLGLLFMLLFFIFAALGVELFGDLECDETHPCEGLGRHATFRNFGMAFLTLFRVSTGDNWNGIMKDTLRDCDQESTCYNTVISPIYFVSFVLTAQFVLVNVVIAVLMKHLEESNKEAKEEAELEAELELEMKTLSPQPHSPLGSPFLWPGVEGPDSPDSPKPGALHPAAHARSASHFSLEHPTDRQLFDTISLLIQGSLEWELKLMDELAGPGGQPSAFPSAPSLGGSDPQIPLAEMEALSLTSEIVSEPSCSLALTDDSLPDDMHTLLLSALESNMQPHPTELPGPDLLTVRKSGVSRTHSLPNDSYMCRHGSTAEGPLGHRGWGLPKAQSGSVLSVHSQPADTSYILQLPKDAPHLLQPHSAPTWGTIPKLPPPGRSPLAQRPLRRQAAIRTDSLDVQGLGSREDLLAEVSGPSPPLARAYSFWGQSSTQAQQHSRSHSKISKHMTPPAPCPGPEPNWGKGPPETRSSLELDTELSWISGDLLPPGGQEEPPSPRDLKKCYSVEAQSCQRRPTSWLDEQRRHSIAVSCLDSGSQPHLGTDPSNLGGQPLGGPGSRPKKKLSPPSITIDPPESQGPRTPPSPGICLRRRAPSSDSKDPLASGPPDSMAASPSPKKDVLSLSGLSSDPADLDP

On to `O=C(NC(c1ccccc1)c1ccccc1)N1CCN(C(c2ccccc2)c2ccc(Cl)cc2Cl)CC1` (centres unmarked) [Compound 2, 4-[(2,4-Dichloro-phenyl)-phenyl-methyl]-piperazine-1-carboxylic acid benzhydryl-amide], for which the IC50 is 1480 nM in experiment [1] (setting [3]), 1480 nM in experiment [1] (setting [4]), 66 nM in experiment [2] (setting [5]) and 221 nM in experiment [2] (setting [6]).
With `Cc1ccc(C(c2ccccc2)N2CCN(C(=O)NC(c3ccccc3)c3ccccc3)CC2)c(C)c1` (centres unmarked) [Compound 3], the IC50 is 2710 nM in experiment [1] (setting [3]), 2710 nM in experiment [1] (setting [4]), 28 nM in experiment [2] (setting [5]) and 75 nM in experiment [2] (setting [6]).
As to `O=C(NC(c1ccccc1)c1ccccc1)N1CCN(C(c2ccccc2)c2ccc(Cl)cc2)CC1` (centres unmarked) [Compound 4, 4-[(4-Chloro-phenyl)-phenyl-methyl]-piperazine-1-carboxylic acid benzhydryl-amide], in experiment [1] (setting [3]), the IC50 worked out at 290 nM. Further, the 50% inhibitory concentration (IC50) in experiment [1] (setting [4]) was determined as 280 nM. For the same compound, in experiment [2] (setting [5]), the IC50 came out at 56 nM. Moreover, the IC50 in experiment [2] (setting [6]) stood at 171 nM. Besides, in the experiment on rat formalin model, the “Phase I (% MPE)” value stood at 71 ± 15 % MPE, the “Phase II Total (% MPE)” value came to 74 ± 11 % MPE, the “Phase IIA (% MPE)” value is on record as 70 ± 13 % MPE and the “Phase IIB (% MPE)” value is recorded as 88 ± 9 % MPE.
Turning to `O=C(NC(c1ccccc1)c1ccccc1)N1CCN(C(c2ccccc2)c2cccc(Cl)c2)CC1` (centres unmarked) [Compound 5, 4-[(3-Chloro-phenyl)-phenyl-methyl]-piperazine-1-carboxylic acid benzhydryl-amide], the half-maximal inhibitory concentration (IC50) in experiment [1] (setting [3]) is 390 nM. Besides, the IC50 in experiment [1] (setting [4]) worked out at 340 nM. Moreover, the IC50 in experiment [2] (setting [5]) came out at 53 nM. For the same compound, in experiment [2] (setting [6]), the half-maximal inhibitory concentration (IC50) is 242 nM. Moreover, in the experiment with rat formalin model, the “Phase I (% MPE)” value was determined as 54 ± 11 % MPE, the “Phase II Total (% MPE)” value stood at 65 ± 10 % MPE, the “Phase IIA (% MPE)” value stood at 52 ± 10 % MPE and the “Phase IIB (% MPE)” value amounted to 105 ± 13 % MPE.
With `CN1CCC(CN2CCN(C(=O)NC(c3ccccc3)c3ccccc3)CC2)CC1` [Compound 10, 4-(1-Methyl-piperidin-4-yl-methyl)-piperazine-1-carboxylic acid benzhydryl-amide], the IC50 in experiment [1] (setting [3]) is 260 nM; in experiment [1] (setting [4]) it was 260 nM; in experiment [2] (setting [5]) it was 20000 nM; in experiment [2] (setting [6]) it was 20000 nM.
In the case of `CN(C)CCCN1CCN(C(=O)NC(c2ccccc2)c2ccccc2)CC1` [Compound 11, 4-(3-Dimethylamino-propyl)-piperazine-1-carboxylic acid benzhydryl-amide], the IC50 in experiment [1] (setting [3]) was determined as 2170 nM. For the same compound, in experiment [1] (setting [4]), the 50% inhibitory concentration (IC50) came out at 990 nM. Further, in the experiment with rat formalin model, the “Phase I (% MPE)” value is reported as 59 ± 13 % MPE, the “Phase II Total (% MPE)” value was 60 ± 12 % MPE, the “Phase IIA (% MPE)” value amounted to 50 ± 14 % MPE and the “Phase IIB (% MPE)” value was found to be 94 ± 22 % MPE.
Regarding `CN1CCCC(CN2CCN(C(=O)NC(c3ccccc3)c3ccccc3)CC2)C1` (centres unmarked) [Compound 12, 4-(1-Methyl-piperidin-3-ylmethyl)-piperazine-1-carboxylic acid benzhydryl-amide], the IC50 is 1700 nM in experiment [1] (setting [3]) and 490 nM in experiment [1] (setting [4]).
In the case of `CN1CCC(C(c2ccccc2)N2CCN(C(=O)NC(c3ccccc3)c3ccccc3)CC2)CC1` (centres unmarked) [Compound 20, 4-[(1-Methyl-piperidin-4-yl)-phenyl-methyl]-piperazine-1-carboxylic acid benzhydryl-amide], the IC50 stood at 3400 nM in experiment [2] (setting [5]) and 5100 nM in experiment [2] (setting [6]).
For the compound `O=C(NC(c1ccccc1)c1ccccc1)N1CCN(CCN2CCCC2)CC1` [Compound 21], the IC50 in experiment [1] (setting [3]) was determined as 1000 nM; in experiment [1] (setting [4]), 1000 nM; in experiment [2] (setting [5]), 2000 nM; in experiment [2] (setting [6]), 15000 nM.
As to `CN1CCCC(C(c2ccccc2)N2CCN(C(=O)NC(c3ccccc3)c3ccccc3)CC2)C1` (centres unmarked) [Compound 22, 4-[(1-Methyl-piperidin-3-yl)-phenyl-methyl]-piperazine-1-carboxylic acid benzhydryl-amide], the IC50 was found to be 6300 nM in experiment [1] (setting [3]) and 2150 nM in experiment [1] (setting [4]).
On the same counts, the results for `CN1CCC(C(c2ccc(Cl)cc2)N2CCN(C(=O)NC(c3ccccc3)c3ccccc3)CC2)CC1` (centres unmarked) [Compound 24, 4-[(1-Methyl-piperidin-4-yl)-(4-chloro-phenyl)-methyl]-piperazine-1-carboxylic acid benzhydryl-amide] are 4310 nM and 2460 nM.
As to `CN1CCC[C@H]1CN1CCN(C(=O)NC(c2ccccc2)c2ccccc2)CC1` [Compound 25], in experiment [1] (setting [3]), the half-inhibitory concentration (IC50) is more than 5900 nM.
On to `CN(C(=O)N1CCN(CCN2CCCC2)CC1)C(c1ccccc1)c1ccccc1` [Compound 32, 4-(2-pyrrolidin-1-ylethyl)-piperazine-1-carboxylic acid benzhydryl-methyl-amide], for which the half-maximal inhibitory concentration (IC50) in experiment [1] (setting [3]) is more than 20000 nM; in experiment [1] (setting [4]), more than 8800 nM; in experiment [2] (setting [5]), more than 6720 nM; in experiment [2] (setting [6]) it was more than 23000 nM.
For the compound `O=C(NC(c1ccccc1)c1ccccc1)N1CCN(C(c2ccccc2)C2CCNCC2)CC1` (centres unmarked) [Compound 35, 4-[Piperidin-4-yl-phenyl-methyl]-piperazine-1-carboxylic acid benzhydryl-amide], the values for the half-maximal inhibitory concentration (IC50) in experiment [1] (setting [3]), in experiment [1] (setting [4]) and in experiment [2] (setting [6]) were 3470 nM, 2160 nM and 663 nM, respectively.
In the case of `Cc1ccc(C(C2CCN(C)CC2)N2CCN(C(=O)NC(c3ccccc3)c3ccccc3)CC2)c(C)c1` (centres unmarked) [Compound 36, 4-[(1-Methyl-piperidin-4-yl)-(2,4-dimethyl-phenyl)-methyl]-piperazine-1-carboxylic acid benzhydryl-amide], the IC50 in experiment [2] (setting [5]) came out at 1300 nM; in experiment [2] (setting [6]), 1900 nM.
Consider `CN1CCC(C(c2ccccc2Cl)N2CCN(C(=O)NC(c3ccccc3)c3ccccc3)CC2)CC1` (centres unmarked) [Compound 37, 4-[(1-Methyl-piperidin-4-yl)-(2-chloro-phenyl)-methyl]-piperazine-1-carboxylic acid benzhydryl-amide], for which the IC50 in experiment [1] (setting [3]) was 1330 nM; in experiment [1] (setting [4]) it was 910 nM.
On the same counts, the results for `CN1CCC(C(c2cccc(Cl)c2)N2CCN(C(=O)NC(c3ccccc3)c3ccccc3)CC2)CC1` (centres unmarked) [Compound 38, 4-[(1-Methyl-piperidin-4-yl)-(3-chloro-phenyl)-methyl]-piperazine-1-carboxylic acid benzhydryl-amide] are 3310 nM and 1560 nM.
For `CN(C(=O)N1CCN(C(c2ccccc2)c2ccccc2)CC1)C(c1ccccc1)c1ccccc1` [Compound 39, 4-(Diphenyl-methyl)-piperazine-1-carboxylic acid benzhydryl-methyl-amide], in that order: 660 nM and 310 nM.

Source of the values: patent US7649092B2, “Urea derivatives as calcium channel blockers” (Neuromed Pharmaceuticals Ltd., priority 2004, dated 2010).
